Molecules are shown by their SMILES.

GCN2 kinase, sequence (Q9P2K8 whole entry): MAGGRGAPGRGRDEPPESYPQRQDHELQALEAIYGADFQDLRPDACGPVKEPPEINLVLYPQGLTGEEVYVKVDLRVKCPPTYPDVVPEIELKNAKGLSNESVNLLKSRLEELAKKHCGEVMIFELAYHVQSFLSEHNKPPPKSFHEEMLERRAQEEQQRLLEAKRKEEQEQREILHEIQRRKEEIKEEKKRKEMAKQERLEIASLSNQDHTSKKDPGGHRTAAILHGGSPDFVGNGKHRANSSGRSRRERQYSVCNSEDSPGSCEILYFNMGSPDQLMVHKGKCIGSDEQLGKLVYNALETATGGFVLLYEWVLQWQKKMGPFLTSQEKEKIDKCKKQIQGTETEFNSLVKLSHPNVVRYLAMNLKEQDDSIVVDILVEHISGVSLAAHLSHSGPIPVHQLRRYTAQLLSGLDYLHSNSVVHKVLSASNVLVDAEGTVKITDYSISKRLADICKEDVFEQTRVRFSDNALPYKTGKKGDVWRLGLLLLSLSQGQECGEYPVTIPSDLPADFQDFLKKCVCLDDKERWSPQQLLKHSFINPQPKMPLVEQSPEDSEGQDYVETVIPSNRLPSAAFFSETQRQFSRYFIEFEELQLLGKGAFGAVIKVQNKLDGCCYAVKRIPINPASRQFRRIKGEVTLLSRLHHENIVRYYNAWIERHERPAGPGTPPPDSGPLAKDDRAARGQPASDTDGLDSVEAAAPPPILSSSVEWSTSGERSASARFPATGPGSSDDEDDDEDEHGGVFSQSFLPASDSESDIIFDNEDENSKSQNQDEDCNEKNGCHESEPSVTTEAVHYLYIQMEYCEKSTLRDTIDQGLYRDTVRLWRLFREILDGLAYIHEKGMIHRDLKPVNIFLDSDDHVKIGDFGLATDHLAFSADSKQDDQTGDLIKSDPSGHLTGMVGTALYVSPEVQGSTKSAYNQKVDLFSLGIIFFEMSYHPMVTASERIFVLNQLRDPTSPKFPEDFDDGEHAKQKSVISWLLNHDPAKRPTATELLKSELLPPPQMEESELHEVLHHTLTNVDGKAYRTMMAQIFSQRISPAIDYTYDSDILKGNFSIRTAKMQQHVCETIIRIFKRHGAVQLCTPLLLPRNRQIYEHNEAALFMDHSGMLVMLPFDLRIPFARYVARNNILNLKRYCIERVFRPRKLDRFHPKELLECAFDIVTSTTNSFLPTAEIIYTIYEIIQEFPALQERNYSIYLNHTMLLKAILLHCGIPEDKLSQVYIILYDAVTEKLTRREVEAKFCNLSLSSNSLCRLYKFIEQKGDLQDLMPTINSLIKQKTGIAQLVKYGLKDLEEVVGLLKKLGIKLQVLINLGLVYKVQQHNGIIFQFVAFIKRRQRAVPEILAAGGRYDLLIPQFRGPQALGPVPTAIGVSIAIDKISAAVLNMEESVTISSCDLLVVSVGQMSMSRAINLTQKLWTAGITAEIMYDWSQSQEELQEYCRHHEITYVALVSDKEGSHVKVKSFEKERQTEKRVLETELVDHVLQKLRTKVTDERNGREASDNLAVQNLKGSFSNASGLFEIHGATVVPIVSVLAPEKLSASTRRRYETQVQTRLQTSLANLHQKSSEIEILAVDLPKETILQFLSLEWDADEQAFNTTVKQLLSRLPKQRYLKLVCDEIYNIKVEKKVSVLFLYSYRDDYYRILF

The target of the first assay is GCN2 kinase (Homo sapiens, UniProt Q9P2K8). The assay is described as follows: GCN2 enzyme inhibition assay (Transcreener ADP2 fluorescence polarization). The assay is classed as biochemical. To be noted: Enzyme activity for compounds of Formula IV; Ki(app), 280 μM ATP, 25° C. The procedure, abridged:
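FP detection of ADP (antibody plus Alexa633 tracer) after a 1 h, 25 °C kinase reaction. Enzyme 4 nM, ATP 280 μM, (RS)7 peptide 200 μM, Tris pH 7.5 buffer with MgCl2 and DTT. Percent inhibition fitted by non-linear tight-binding algorithm for IC50 and Ki(app).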
For the compound `Cn1nc(C2CCN(c3ccnc(-c4cnc5cnc(C(F)(F)F)cn45)n3)C2)cc1O` (stereo not shown) [IV-647, 1-Methyl-3-(1-(2-(6-(trifluoromethyl)imidazo[1,2-a]pyrazin-3-yl)pyrimidin-4-yl)pyrrolidin-3-yl)-1H-pyrazol-5-ol], the Ki lay within 100 to 1000 nM.
On the same count and under the same terms, the result for `Clc1cn2c(-c3nccc(N4CCNC(c5cn[nH]c5)C4)n3)cnc2cn1` (single isomer, unassigned) [IV-238, 3-(4-(3-(1H-Pyrazol-4-yl)piperazin-1-yl)pyrimidin-2-yl)-6-chloroimidazo[1,2-a]pyrazine] reads 10 to 100 nM.
On the same count and under the same terms, the result for `N[C@H]1CCCN(c2ccnc(-c3cnc4cnc(C(F)(F)F)cn34)n2)C1` [IV-736] reads greater than 1000 nM; that for `CC(=O)N1CCN(c2ccnc(-c3cnc4cnc(-c5c[nH]nc5C)cn34)n2)CC1` [IV-300, 1-(4-(2-(6-(3-Methyl-1H-pyrazol-4-yl)imidazo[1,2-a]pyrazin-3-yl)pyrimidin-4-yl)piperazin-1-yl)ethan-1-one], 100 to 1000 nM; that for `CC(=O)NC1CCN(c2ccnc(-c3cnc4cnc(C(N)=O)cn34)n2)CC1` [IV-248, 3-(4-(4-Acetamidopiperidin-1-yl)pyrimidin-2-yl)imidazo[1,2-a]pyrazine-6-carboxamide], 10 to 100 nM.
Compound `Cn1nccc1C1CCCN(c2ccnc(-c3cnc4cnc(C(F)(F)F)cn34)n2)C1` (stereo not shown) [IV-655, 3-(4-(3-(1-Methyl-1H-pyrazol-5-yl)piperidin-1-yl)pyrimidin-2-yl)-6-(trifluoromethyl)imidazo[1,2-a]pyrazine] yielded a Ki of 100 to 1000 nM.
`NCC1CN(c2ccnc(-c3cnc4cnc(C(F)(F)F)cn34)n2)CCO1` (stereo not shown) [IV-489] had a Ki of 100 to 1000 nM.
Still for that read-out and setting: the result for `O=S1(=O)CCN(c2ccnc(-c3cnc4cnc(C(F)F)cn34)n2)CC1` [IV-84, 4-(2-(6-(Difluoromethyl)imidazo[1,2-a]pyrazin-3-yl)pyrimidin-4-yl)thiomorpholine 1,1-dioxide] reads 100 to 1000 nM; that for `CN1CCCC2(CCN(c3ccnc(-c4cnc5cnc(C(F)(F)F)cn45)n3)C2)C1=O` (stereo not shown) [IV-554, 7-Methyl-2-(2-(6-(trifluoromethyl)imidazo[1,2-a]pyrazin-3-yl)pyrimidin-4-yl)-2,7-diazaspiro[4.5]decan-6-one], 100 to 1000 nM.
On the same count and under the same terms, next, `CC1CN(c2nccc(-c3cnc4cnc(Cl)cn34)n2)C(C)C(c2cn[nH]c2)N1` (stereo not shown) [IV-382, 6-Chloro-3-(2-(2,5-dimethyl-3-(1H-pyrazol-4-yl)piperazin-1-yl)pyrimidin-4-yl)imidazo[1,2-a]pyrazine]: 10 to 100 nM.
Same read-out and setting: next, `CC1C(c2cn[nH]c2)OCCN1c1ccnc(-c2cnc3cnc(Br)cn23)n1` (single isomer, unassigned) [IV-328, 4-(2-(6-Bromoimidazo[1,2-a]pyrazin-3-yl)pyrimidin-4-yl)-3-methyl-2-(1H-pyrazol-4-yl)morpholine]: less than 10 nM; `OC1CCN(C2CCN(c3ccnc(-c4cnc5cnc(C(F)(F)F)cn45)n3)C2)CC1` (stereo not shown) [IV-645, 1-(1-(2-(6-(Trifluoromethyl)imidazo[1,2-a]pyrazin-3-yl)pyrimidin-4-yl)pyrrolidin-3-yl)piperidin-4-ol]: 100 to 1000 nM.
For the compound `O=C(N[C@H]1CCCN(c2ccnc(-c3cnc4cnc(C(F)(F)F)cn34)n2)C1)c1ccoc1` [IV-748], the Ki is greater than 1000 nM.
Same read-out and setting: the result for `NC(=O)c1cn2c(-c3nccc(N4CCCCC4CO)n3)cnc2cn1` (stereo not shown) [IV-241, 3-(4-(2-(Hydroxymethyl)piperidin-1-yl)pyrimidin-2-yl)imidazo[1,2-a]pyrazine-6-carboxamide] reads 100 to 1000 nM; that for `O=C(O)C1c2sccc2CCN1c1ccnc(-c2cnc3cnc(C(F)(F)F)cn23)n1` (stereo not shown) [IV-731], greater than 1000 nM.
On the same count and under the same terms, next, `CC1CC(c2cn[nH]c2)C(C)N(c2ccnc(-c3cnc4cnc(C(F)(F)F)cn34)n2)C1` (stereo not shown) [IV-304, 3-(4-(2,5-Dimethyl-3-(1H-pyrazol-4-yl)piperidin-1-yl)pyrimidin-2-yl)-6-(trifluoromethyl)imidazo[1,2-a]pyrazine]: less than 10 nM; `FC(F)(F)c1cn2c(-c3ccnc(N4CCOC(c5cn[nH]c5)C4)n3)cnc2cn1` (single isomer, unassigned) [IV-185, 2-(1H-Pyrazol-4-yl)-4-(4-(6-(trifluoromethyl)imidazo[1,2-a]pyrazin-3-yl)pyrimidin-2-yl)morpholine]: 10 to 100 nM; `CC1CCCN(c2ccnc(-c3cnc4cnc(C(N)=O)cn34)n2)C1C` (stereo not shown) [IV-264, 3-(4-(2,3-Dimethylpiperidin-1-yl)pyrimidin-2-yl)imidazo[1,2-a]pyrazine-6-carboxamide]: less than 10 nM.
As to `FC(F)(F)c1cn2c(-c3nccc(N4CCCCCC4)n3)cnc2cn1` [IV-429, 3-(4-(Azepan-1-yl)pyrimidin-2-yl)-6-(trifluoromethyl)imidazo[1,2-a]pyrazine], the Ki is 100 to 1000 nM.

Still in this assay, the particulars now being: compounds of Formula II; 280 μM ATP, 4 nM GCN2 kinase.
On to `CS(=O)(=O)NC1CN(c2cc(-c3cnc4ccc(C(F)F)nn34)ncn2)CCC1(F)F` (stereo not shown) [II-597, N-(1-(6-(6-(Difluoromethyl)imidazo[1,2-b]pyridazin-3-yl)pyrimidin-4-yl)-4,4-difluoropiperidin-3-yl)methanesulfonamide], for which the Ki is 10 to 1000 nM.
For `Cc1nn(C)cc1[C@H]1CN(c2cc(-c3cnc4ccc(C(F)(F)F)nn34)ncn2)C[C@H](C)O1` [II-758, (2S,6S)-2-(1,3-dimethyl-1H-pyrazol-4-yl)-6-methyl-4-(6-(6-(trifluoromethyl)imidazo[1,2-b]pyridazin-3-yl)pyrimidin-4-yl)morpholine], the IC50 is greater than 1000 nM.
Compound `CCC1COC(CNS(C)(=O)=O)CN1c1cc(-c2cnc3ccc(C(F)F)nn23)ncn1` (stereo not shown) [II-269, N-((4-(6-(6-(Difluoromethyl)imidazo[1,2-b]pyridazin-3-yl)pyrimidin-4-yl)-5-ethylmorpholin-2-yl)methyl)methanesulfonamide] returned a Ki of 10 to 1000 nM.
Still for that read-out and setting: the result for `CS(=O)(=O)NCc1cccc(-c2cc(-c3cnc4ccc(C(F)F)nn34)ncn2)c1` [II-576, N-[[3-[6-[6-(Difluoromethyl)imidazo[1,2-b]pyridazin-3-yl]pyrimidin-4-yl]phenyl]methyl]methanesulfonamide] reads less than 10 nM; that for `FC(F)c1ccc2ncc(-c3ccnc(N4C[C@@H]5C[C@H]4CN5)c3)n2n1` [II-165, 3-(2-((1S,4S)-2,5-Diazabicyclo[2.2.1]heptan-2-yl)pyridin-4-yl)-6-(difluoromethyl)imidazo[1,2-b]pyridazine], 10 to 1000 nM; that for `CC1C(CO)N(C(C)(C)C)CCN1c1cc(-c2cnc3ccc(C(F)F)nn23)ncn1` (stereo not shown) [II-556, (1-(tert-Butyl)-4-(6-(6-(difluoromethyl)imidazo[1,2-b]pyridazin-3-yl)pyrimidin-4-yl)-3-methylpiperazin-2-yl)methanol], 10 to 1000 nM.
Regarding `N#CC1CN(c2cc(-c3cnc4ccc(C(F)F)nn34)ncn2)CCO1` (stereo not shown) [II-531, 4-(6-(6-(Difluoromethyl)imidazo[1,2-b]pyridazin-3-yl)pyrimidin-4-yl)morpholine-2-carbonitrile], the Ki was in the range of 10 to 1000 nM.
Same read-out and setting: next, `CC1C(CNS(C)(=O)=O)C(C)(O)C(C)CN1c1cc(-c2cnc3ccc(C(F)F)nn23)ncn1` (stereo not shown) [II-617, N-((1-(6-(6-(Difluoromethyl)imidazo[1,2-b]pyridazin-3-yl)pyrimidin-4-yl)-4-hydroxy-2,4,5-trimethylpiperidin-3-yl)methyl)methanesulfonamide]: 10 to 1000 nM; `CC1C(CNS(C)(=O)=O)OCCN1c1cc(-c2cnc3ccc(C(F)F)nn23)ncn1` (single isomer, unassigned) [II-371, N-((4-(6-(6-(Difluoromethyl)imidazo[1,2-b]pyridazin-3-yl)pyrimidin-4-yl)-3-methylmorpholin-2-yl)methyl)methanesulfonamide]: less than 10 nM; `OC1CCCC2C1NCCN2c1cc(-c2cnc3ccc(C(F)F)nn23)ncn1` (stereo not shown) [II-628, 1-[6-[6-(Difluoromethyl)imidazo[1,2-b]pyridazin-3-yl]pyrimidin-4-yl]-3,4,4a,5,6,7,8,8a-octahydro-2H-quinoxalin-5-ol]: 10 to 1000 nM.
For `[2H]C([2H])([2H])N1CCN(c2cc(-c3cnc4ccc(C(F)F)nn34)ncn2)C(C)C1CNS(C)(=O)=O` (stereo not shown) [II-562, N-((4-(6-(6-(Difluoromethyl)imidazo[1,2-b]pyridazin-3-yl)pyrimidin-4-yl)-3-methyl-1-(methyl-d3)piperazin-2-yl)methyl)methanesulfonamide], the Ki was less than 10 nM.
The same measure, in the same setting: the result for `CCC1CC(N=S(C)(C)=O)CN(c2cc(-c3cnc4ccc(C(F)F)nn34)ncn2)C1` (stereo not shown) [II-648, ((1-(6-(6-(Difluoromethyl)imidazo[1,2-b]pyridazin-3-yl)pyrimidin-4-yl)-5-ethylpiperidin-3-yl)imino)dimethyl-λ^6-sulfanone] reads less than 10 nM.

The assay is the same for the next values; noted with them: compounds of Formula III; 280 μM ATP, 4 nM GCN2 kinase.
`CC1CC(N=S(C)(C)=O)CN(c2cc(-c3cnn4ccc(C(F)F)nc34)ncn2)C1` (stereo not shown) [III-14, [1-[6-[5-(Difluoromethyl)pyrazolo[1,5-a]pyrimidin-3-yl]pyrimidin-4-yl]-5-methyl-3-piperidyl]imino-dimethyl-oxo-6-sulfane] had a Ki of 10 to 1000 nM.

The assay is the same for the next values; noted with them: compounds of Formula IV; 280 μM ATP, 4 nM GCN2 kinase.
Regarding `Cc1n[nH]cc1[C@@H]1CN(c2ccnc(-c3cnc4cnc(C(F)(F)F)cn34)n2)C[C@@H](C)O1` [IV-760, (2R,6R)-2-methyl-6-(3-methyl-1H-pyrazol-4-yl)-4-(2-(6-(trifluoromethyl)imidazo[1,2-a]pyrazin-3-yl)pyrimidin-4-yl)morpholine], the concentration for half-maximal inhibition (IC50) lay in the range of 10 to 1000 nM.
On the same count and under the same terms, the result for `Cc1n[nH]cc1[C@@H]1C[C@@H](C)CN(c2nccc(-c3cnc4cnc(C(F)(F)F)cn34)n2)C1` [IV-756, -(2-((3R,5S)-3-methyl-5-(3-methyl-1H-pyrazol-4-yl)piperidin-1-yl)pyrimidin-4-yl)-6-(trifluoromethyl)imidazo[1,2-a]pyrazine] reads 10 to 1000 nM.

The values are drawn from US10988477B2 (Merck Patent GmbH, priority 2018, dated 2021).
